The values below are quoted from earlier work in US20050197327A1, “Compounds, compositions, and methods” (priority 2003, published 2005).

For this series, the system named is A549 cells. The note with it: data provided by National Cancer Institute.
In the case of `O=c1[nH]cc(F)c(=O)[nH]1` [5-fluorouracil], the GI50 is 1000 nM.
On to `COc1cccc2c1C(=O)c1c(O)c3c(c(O)c1C2=O)C[C@@](O)(C(=O)CO)C[C@@H]3O[C@H]1C[C@H](N)[C@H](O)[C@H](C)O1` [doxorubicin], for which the GI50 is 63 nM.
In the case of `NC(=O)NO` [hydroxyurea], the concentration for 50% growth inhibition (GI50) was 500000 nM.
Turning to `CC(=O)O[C@H]1C(=O)[C@@]2(C)[C@H]([C@H](OC(=O)c3ccccc3)[C@]3(O)C[C@H](OC(=O)[C@H](O)[C@@H](NC(=O)c4ccccc4)c4ccccc4)C(C)=C1C3(C)C)[C@]1(OC(C)=O)CO[C@@H]1C[C@@H]2O` [paclitaxel], the GI50 is 4 nM.

As a reminder, the GI50 is the concentration that inhibits growth by half.
